The results in this text go back to patent US8142760B2, “Vaccination for Lawsonia intracellularis” (priority 2008, dated 2012).

The subject of this assay is Lawsonia intracellularis. In words: Fecal PCR for L. intracellularis in pigs after controlled exposure. Format: in vivo. The following applies: day 28, after 14 days of MECADOX 50 g/ton in feed started 14 days post inoculation. From the text:
Four groups of pigs totaling 1409 pigs, between 8 and 10 weeks of age and sourced from a single nursery site, were moved to a finishing barn containing four separate rooms. The barn was filled over four consecutive weeks, filling one room per week. Each group of approximately 350 pigs was weighed as a group before placement into a barn room. The four rooms were alternately assigned to two treatment groups, inoculated (T1) and non-inoculated (T2). Sixteen animals per room were randomly selected and individually identified with ear tags.
On day 0, T1 pigs received inoculum of mucosal homogenate from PE-diseased intestine. Samples of inoculum were submitted to a diagnostic lab for quantification of L. intracellularis organisms before administration. The inoculum was delivered to each pen through the watering system and calibrated to deliver an average dose of 10^5±10 L. intracellularis organisms per pig over a 4-6 hour period. T2 pigs received no inoculum.
All pigs received MECADOX (carbadox) (50 g/ton) for at least 14 days in their nursery diets and up until day −3. Non-medicated feed was fed days −3 to 14 (exposure period) to both treatment groups. MECADOX (carbadox) 50 grams/ton medicated feed was fed to all pigs on days 14 to 28. From day 28 to end of study, all pigs received non-medicated feed. […]

For `COC(=O)N/N=C/c1c[n+]([O-])c2ccccc2[n+]1[O-]` [MECADOX (carbadox), carbadox], the “sampled, infected pigs negative by fecal PCR for L. intracellularis” value was found to be 100%.
